Entries after “also recorded” stand apart in the source; their conditions may differ.
Legend:
[1] = rat adjuvant arthritis; cited from earlier work
iNOS [2] = experiment: Nitrite accumulation in LPS-stimulated RAW 264.7 murine macrophages (Griess method); type: cell-based
Experimental: Effects of NSAIDs on Nitrite Accumulation. […] The expression and activity of iNOS were monitored by estimation of the stable end-product: nitrites.
concentrations of NSAIDs for 2 h followed by addition of 100 ng/ml of LPS
After 16-18 h of incubation, the medium was used to estimate the
accumulation of nitrite by the Greiss method (Green et al., Anal Biochem.
(§1) The specific activity of iNOS was determined in cellfre
(§2) extracts at a given time period as described. The nitrite and specific
activity data are representative of mean ± SD value, as determined by
student t test, for 10 and 4 independent experiments, respectively. The p
values described are compared with LPSstimulated cells. […]

iNOS [3] = experiment: iNOS expression in stimulated rat chondrosarcomas; type: cell-based; conditions: for effect on iNOS in rat chondrosarcomas: LPS/cytokine-stimulated, L-NMMA 500 μM, indomethacin 20 μM
Experimental: NSAIDs were tested in: (FIG. 5A) rat chondrosarcomas stimulated with LPS, and (FIG. 5B) unstimulated OA cartilage (n=3).

human chondrocyte iNOS = conditions: cited from earlier work
NOS = conditions: cited from earlier work
OA-NOS [4] = experiment: Sensitivity of OA-NOS to agents (Table 3 comparison)
iNOS [5] = experiment: Specific activity of iNOS in cell-free extracts of RAW 264.7 cells exposed to drug during LPS induction; type: cell-based, murine
Experimental: Assays for iNOS in Cell-Free Extracts. […] The reaction mixture for iNOS assay (in cell-free extracts) consists of Tris […] (pH 7.8); BSA 1 mg/ml; DTT 1 mM; CaCl2, 2 mM; FAD 10 μM; BH4 10 μM; L-arginine 30 μM; NADPH 1 mM. The assay mixture for cNOS consists of Tris 50 mM (pH 7.8); L-arginine 50 μM; calmodulin 10 μg/ml; BH4 10 μM; CaCl2 2 mM; NADPH 100 μM. RAW 264.7 cells were induced with LPS in the presence and absence of NSAIDs for 16-18 h. […] Cells were re-pelleted at 4° C. and resuspended in Tris buffer (10 mM, pH 7.4) containing 1 mg/ml each chymostatin, antipain, leupeptin and pepstatin, 1 mM DTT and 1 mM PMSF. Cells were lysed in a Polytron PT 1200 homogenizer (Kinematica AG, Switzerland) after 3 cycles of rapid freeze-thawing. The lysate was centrifuged at 16,000 rpm for 60 min at 4° C., and the supernatants were used as cell-free extracts. […] After 20 min the assays were terminated by heating the reaction mixture at 90° C. for 5 min. The precipitates were removed by centrifuging at 15,000 rpm for 20 min. Ten microliters (≈50,000 cpm) of the supernatant was spotted on activated Avicel TLC plates (Analtech, Newark, Del.). The TLC plates were developed in a solvent system consisting of ethanol:water:ammonia (80:16:4). Quantitation of the spot for L-[^3 3H]-citrulline was performed by a Bioscan System 200 Imaging Scanner. A phosphoimager can also be used for such quantification.
as §1, §2

iNOS [6] = experiment: In vitro iNOS catalytic activity in cell-free extracts preincubated with drug (L-[3H]-arginine to L-[3H]-citrulline); type: biochemical, murine
iNOS [7] = experiment: iNOS protein expression, Western blot, LPS-treated RAW 264.7 cells; type: cell-based, murine
Experimental: Western Blot Analysis. Equal amounts of protein (50 μg) estimated by BCA reagent (Pierce, Rockford, Ill.) were loaded onto SDS-PAGE gels and stained to verify the concentrations of various protein fractions by examining the intensities of the protein bands on the gels. Western blot analysis was carried out from the same cell extracts. The Western-blotted membrane was probed with a specific anti-iNOS monoclonal antibody, as specified by Transduction Laboratories (Lexington, Ky.). The blots were developed using the ECL Western blot system (Amersham, Arlington Heights, Ill.). Quantitation of the bands was performed using a densitometer from Molecular Dynamics (Sunnyville, Calif.).
The protein expression data are represented as
ND = not done. NS = not significant.
A Western blot analysis of iNOS protein was carried out in cells treated with […] LPS in the presence and absence of NSAIDs for 16-18 h.

OA-NOS [8] = experiment: Nitrite release by OA-affected articular cartilage, ex vivo organ culture; type: cell-based, human
neutrophil = conditions: data not shown; read-out: ability to inhibit fMet-Leu-Phe-induced neutrophil aggregation (IC50); cited from earlier work
NF-κB = conditions: cited from earlier work
COX = conditions: cited from earlier work
human iNOS = conditions: crude lysates; cited from earlier work

N=C(N)NCCC[C@H](N)C(=O)O [L-arginine]
NO biosynthesis, paw swelling and histopathological changes in ankle joints [1]: competitively reversed the effect of L-NMMA

C[C@]12CCC(=O)C=C1CC[C@@H]1[C@@H]2[C@@H](O)C[C@@]2(C)[C@H]1CC[C@]2(O)C(=O)CO [Hydrocortisone, hydrocortisone]
Nitrite released, % inhibition (iNOS [2]; 5 μM (Table 2: 5 μm), LPS 100 ng/ml, 16-18 h, 5 µM): 63.0% | inhibition at 5 µM (iNOS [2]; Mus musculus, RAW264.7, read-out: Nitrite released, % inhibition, 5 μM (Table 2: 5 μm), LPS 100 ng/ml, 16-18 h): > 60% | effect on iNOS in rat chondrosarcomas (iNOS [3]): no significant effect on iNOS expression | sensitivity of human chondrocyte iNOS (human chondrocyte iNOS): lack of sensitivity | NOS expression in murine macrophages, endothelial cells and smooth muscles (NOS): abolishes NOS expression | sensitivity of OA-NOS (OA-NOS [4]): insensitive; also recorded: not sensitive

O=C([O-])c1ccccc1O.[Na+] [Sodium salicylate, sodium salicylate]
Nitrite released, Nitrite (iNOS [2]; 3 mM, LPS 100 ng/ml, 16-18 h): 27.1 ± 8.8 µM | IC50 (iNOS [2]; Mus musculus, RAW264.7, read-out: IC50 with respect to nitrite accumulation): 20 mM | inhibition at 3000 µM (iNOS [2]; Mus musculus, RAW264.7, read-out: Nitrite released, % inhibition, 3 mM, LPS 100 ng/ml, 16-18 h): ~7% | inhibition at 20000 µM (iNOS [2]; Mus musculus, RAW264.7, read-out: inhibition of accumulation of nitrites, 20 mM, suprapharmacological): 50% | inhibition at 5000 µM (iNOS [2]; Mus musculus, RAW264.7, read-out: inhibition of nitrite accumulation, 5 mM, suprapharmacological): 15 ± 1% | Specific activity of iNOS (iNOS [5]; 3 mM): 304.0 ± 48.1 pmol/min/mg protein | inhibition at 3000 µM (iNOS [5]; Mus musculus, RAW264.7, 16 h, read-out: Specific activity, % inhibition, 3 mM, cell-free extracts, 16 h): 2% | effect on specific activity of iNOS (iNOS [5]; NaSal 3 mM, indomethacin 5 μM (Table 1), therapeutic concentrations): did not inhibit | inhibition of iNOS catalytic activity in cell-free extracts (specific activity in in vitro assay) (iNOS [6]; 1 mM, 20 min preincubation): ~ 1% | effect on the catalytic activity of iNOS (iNOS [6]; indomethacin 5 μM, sodium salicylate 1 mM): no significant differences; also recorded: no significant effect on the catalytic activity of iNOS | inhibition of iNOS expression (iNOS [7]; 2-3 mM, variable in 4 independent experiments): 0-35% | effect on iNOS expression at increased concentration (iNOS [7]; 5 and 20 mM): did not cause increased inhibition of iNOS expression | inhibition at 2000 µM (iNOS [7]; Mus musculus, RAW264.7, read-out: inhibition of iNOS expression, 2 mM, Western blot, 16-18 h): ~15% | inhibition at 3000 µM (iNOS [7]; Mus musculus, RAW264.7, read-out: inhibition of iNOS protein expression, 3 mM, approximate, densitometry): ~15% | inhibition of iNOS expression in rat chondrosarcomas (iNOS [3]; 72 h, added 1 h prior to cytokines): ~ 55% | effect on iNOS in rat chondrosarcomas (iNOS [3]): significant inhibition of iNOS | effect on nitrite accumulation / NOS expression in OA cartilage (OA-NOS [8]): blocked iNOS expression in OA cartilage | rank order of inhibition of spontaneous nitrite accumulation (OA-NOS [8]): aspirin>indomethacin>sodium salicylate | IC50 (neutrophil): 3 mM | activation of NF-κB (NF-κB; 5-20 mM, suprapharmacological): interfere in the activation of NF-κB | NF-κB-dependent transcription (NF-κB; aspirin 3 mM, sodium salicylate 5 mM, luciferase reporter): inhibit NF-κB-dependent transcription | NF-κB activation, gel shift assays (NF-κB; same concentrations (aspirin 3 mM; sodium salicylate 5 mM)): no significant effect on NF-κB activation | COX inhibition (COX): an ineffective inhibitor of COX | sensitivity of OA-NOS (OA-NOS [4]): inhibited; also recorded: shows sensitivity

N=C(N)NN [aminoguanidine]
effect on nitrite accumulation / NOS expression in OA cartilage (OA-NOS [8]): inhibited | sensitivity of OA-NOS (OA-NOS [4]): blocked; also recorded: shows sensitivity

C[C@@H]1C[C@@H]([C@H](O)CC2CC(=O)NC(=O)C2)C(=O)[C@@H](C)C1 [cycloheximide]
inhibition at 3.5 µM (OA-NOS [8]; Homo sapiens, 3.5 μM, 24 h, read-out: inhibition of nitrite accumulation): > 90% | inhibition at 17.5 µM (OA-NOS [8]; Homo sapiens, 17.5 μM, 24 h, read-out: inhibition of nitrite accumulation): > 90% | block of nitrite accumulation (OA-NOS [8]; cycloheximide 35 μM or PDTC 30 μM, 24 h, cytokine/endotoxin-induced and control cartilage): > 90% | sensitivity of OA-NOS (OA-NOS [4]): blocked; also recorded: shows sensitivity

CC(=O)Nc1ccc(O)cc1 [Acetaminophen, acetaminophen]
block of nitrite production (iNOS [2]; 60-120 μM, LPS-stimulated): 1±1% | effect on iNOS in rat chondrosarcomas (iNOS [3]): no significant effect on iNOS expression

O=C(O)CN(CCN(CC(=O)O)CC(=O)O)CC(=O)O [EDTA, ethylenediaminetetraacetic acid]
human iNOS activity (human iNOS): markedly reduces

C[C@@H]1C[C@H]2[C@@H]3CCC4=CC(=O)C=C[C@]4(C)[C@@]3(F)[C@@H](O)C[C@]2(C)[C@@]1(O)C(=O)CO [dexamethasone]
sensitivity of human chondrocyte iNOS (human chondrocyte iNOS): lack of sensitivity | NOS expression in murine macrophages, endothelial cells and smooth muscles (NOS): abolishes NOS expression
